Target: Androgen Receptor (AR) (Homo sapiens, UniProt P10275)
Experiment: competition radioligand binding with [3H]-R1881

Chain of Androgen Receptor (AR) (P10275 whole entry): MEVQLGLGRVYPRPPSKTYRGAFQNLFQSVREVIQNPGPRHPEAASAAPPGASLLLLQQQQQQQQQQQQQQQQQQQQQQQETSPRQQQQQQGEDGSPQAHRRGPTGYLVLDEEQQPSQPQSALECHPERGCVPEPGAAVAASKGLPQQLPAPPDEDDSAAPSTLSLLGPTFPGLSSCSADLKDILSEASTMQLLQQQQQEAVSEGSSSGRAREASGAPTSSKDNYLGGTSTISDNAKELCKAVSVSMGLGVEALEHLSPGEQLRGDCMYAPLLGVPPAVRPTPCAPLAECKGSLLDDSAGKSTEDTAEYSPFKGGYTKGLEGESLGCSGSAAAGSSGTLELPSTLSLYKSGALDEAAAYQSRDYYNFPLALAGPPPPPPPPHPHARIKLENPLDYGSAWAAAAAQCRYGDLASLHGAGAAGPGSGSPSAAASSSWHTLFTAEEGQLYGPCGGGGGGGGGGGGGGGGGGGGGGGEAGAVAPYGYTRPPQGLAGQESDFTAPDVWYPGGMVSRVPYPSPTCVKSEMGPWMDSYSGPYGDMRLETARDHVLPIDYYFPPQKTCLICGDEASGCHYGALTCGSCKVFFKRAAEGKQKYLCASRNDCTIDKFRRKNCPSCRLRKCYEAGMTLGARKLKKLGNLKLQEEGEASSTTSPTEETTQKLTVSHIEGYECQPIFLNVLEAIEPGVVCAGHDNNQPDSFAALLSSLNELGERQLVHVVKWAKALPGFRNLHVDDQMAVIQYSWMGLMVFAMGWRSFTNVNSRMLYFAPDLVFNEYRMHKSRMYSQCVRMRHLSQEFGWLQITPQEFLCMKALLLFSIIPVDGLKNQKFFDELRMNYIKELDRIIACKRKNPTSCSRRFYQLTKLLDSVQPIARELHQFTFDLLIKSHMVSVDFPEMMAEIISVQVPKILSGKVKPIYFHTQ

SMILES: CC1(C)C(=O)N(c2ccc(C#N)c(C(F)(F)F)c2)C(=S)N1CCCCO [RU59063]
- competition radioligand binding with [3H]-R1881 (parent ligand): competition radioligand binding assay using [^3H]-R1881 showed that appending of the adamantyl group to RU59063 reduced affinity
